The values below come from patent US12589143B2, “Human anti-PD-L1 peptide vaccines and methods of their use” (priority 2019, dated 2026).

This test has as its system MVF-PD-L1 peptide immunogen. Description: Immunogenicity in Balb/c mice, experiment 2 (CT26/HER-2): ELISA of sera vs each MVF-PD-L1 peptide immunogen. Particulars: Balb/c mice. It is filed as in vivo. Here is the method:
Immunogenicity of MVF-PD-L1 B-cell epitopes. New Zealand White rabbits were immunized with 1 mg of each MVF-peptide immunogens dissolved in dd H2O emulsified (1:1) in Montanide ISA 720 vehicle (Seppic) with 333 μg of N-acetylglucosamine-3yl-acetyl-1-alanyl-d-isoglutamine (nor-MDP). Rabbits were boosted with the same doses at 3-week's intervals. Blood was collected via the central auricular artery in rabbits. Blood was collected weekly (1Y+3, 2Y+1, 2Y+2,2Y+3, 3Y+1, 3Y+2 and sera tested for antibody titers by ELISA using the immunogens MVF-PD-L1 peptides. Sera (terminal) from rabbit (3Y+3) immunized with MVF-PD-1 peptide immunogens were tested individually versus the immunogen by ELISA. 200 ng/well peptide were used in duplicates to coat the ELISA plates. Titers are defined as the highest dilution of sera with an absorbance value of 0.2 after subtracting the blank. […]
In order to verify the efficacy of the PD-L1 epitope vaccines in vivo in the CT26/HER-2 carcinoma cell line, Balb/c mice (10 mice/group) were immunized with 100 μg each of MVF-PD-L1 (36-53), MVF-PD-L1 (50-67), MVF-PD-L1 (95-112) and MVF-PD-L1 (130-147) emulsified with nor-MDP and Montanide 720 (1:1 ratio) SCHEME 2A (FIG. 15A). As detailed in SCHEME 2A-D (FIGS. 15A, 15B, 15C, and 15D), mice were immunized 3 times at 3 weeks intervals. […] All PD-L1 epitopes elicited high titers of PD-L1 anti-peptide antibodies by ELISA. […] We also investigated the combination of PD-1(92-110) with PD-L1-95.
For each peptide, vaccine antibodies were raised in New Zealand white rabbits, purchased from Charles River Laboratories (Wilmington, MA, USA). Rabbits were immunized with 1 mg of MVF chimeric peptide emulsified in Montanide ISA 720 (Seppic, Paris, France) and boosted 3 times at three week intervals. For mouse experiments, mice, 6-8 weeks old, were immunized with 0.1 mg of peptide emulsified in ISA720 (1:1 ratio). Mice were boosted with the respective doses at 3-week intervals. Blood was then collected and sera were tested for antibody titers. Sera were collected weekly and peptide vaccine antibodies were purified by affinity chromatography using a protein A/G column and the concentration was measured using Spectrophometer. All experiments were performed in accordance with the U.S. Public Health Service Policy on Humane Care and Use of Laboratory animals and approved by the Ohio State University Institutional Animals Care and Use Committee, detailed in the accepted protocol.
6-8 weeks old BALB/c mice (Charles River, Wilmington, MA) were used as standard animal models. Mouse CT26 colon carcinoma cell line was purchased from American Type Culture Collection Cells and were regularly cultured in RPMI1640 medium containing 10% FBS. CT26/HER2 cells were kindly provided by M. Penichet. Vaccines were dissolved in sterile water and emulsified in Montanide ISA 720 (1:1). Female Balb/c mice (Charles River Laboratories) at the age of 6-8 weeks were immunized three times at 3-week intervals with 100 μg of each peptide vaccine, and 2 weeks after the third immunization, the mice were challenged with CT26 and/or CT26/HER-2 tumor cells, which were implanted subcutaneously (s.c) on the right flank (1×10^5 per mouse). 200 μg of rat α-mouse PD-L1 mAb 10F.9G2 (Bio X Cell, West Lebanon, NH) were administered intraperitoneally (i.p.), twice weekly following tumor inoculation in the control group. Mice were monitored and scored for the formation of palpable tumors on a daily basis and sacrificed if tumors became necrotic or exceeded the predetermined size of 2,000 mm^3. Tumor volumes were measured in cubic millimeters with calipers and calculated with the following formula: A×B^2×0.5, where A is the largest diameter, and B is the widest point perpendicular to length. During immunization, blood was drawn weekly and used in ELISA to monitor antibody titers.
In general terms: ELISA stands for enzyme-linked immunosorbent assay.

Where no end group is shown, it is not given here.

With “KLLSLIKGVIVHRLEGVEGPSLLIVYWEMEDKNIIQFVHG (KLLSLIKGVIVHRLEGVEGPSLLIVYWEMEDKNIIQFVHG-NH2) [PD-L1(36)]”, the “Immunogenicity (titers) 1′ Conc. 1:” value runs as follows: (bleed 1Y + 3) 0; (bleed 2Y + 1) 1600; (bleed 2Y + 2) 4000; (bleed 2Y + 3) 32000; (bleed 3Y + 1) 16000; (bleed 3Y + 2) 32000. For the same sequence, the “Immunogenicity (titers) 1′ Conc. 1:” value (bleed 3Y + 3) turned out to be 16000.
